# Source: article PMC12292992, “Betulinic Acid ω-Triphenylphosphonium Alkyl Esters: Antiproliferative Activities and In Silico Pharmacokinetic Profiles” (Biomedicines, 2025)
# Columns and labels:
# Format in all cases: cell-based, human
# MCF-7 cells = assay: Oxygen consumption assay (Clark-type electrode); settings: for oxygen consumption rate: after oligomycin
# Experimental: (§1) Oxygen consumption of the tumor cells was measured polarographically using a Clark-type electrode (Yellow Springs Instruments, Dayton, OH, USA) placed horizontally in a cell of 0.6 mL volume at 25 °C, coupled to a YSI monitor (model 53). The electrode signal was recorded in a computer connected to a DI-148U module with a USB interface. Data were acquired using the Windaq Acquisition Waveform Recorder software v3.36 (DataQ Instruments, Akron, OH, USA). The test medium used contained 150 mM NaCl, 5 mM KCl, and 1 mM Tris-HCl, and pH 7.4. 5 mM glutamine was added with the cells and test compounds. Oxygen consumption was recorded when the cell aliquots (6 × 10^6 cells) were added. Oligomycin (1.5 μg/mL) was added as an inhibitor of the Fo subunit of ATP synthase prior to the incorporation of the compounds under study. FCCP (carbonyl cyanide-p-trifluoromethoxyphenylhydrazone, 50 nM) was used prior to the addition of test compounds as an internal control to calibrate the electrode system and confirm the maximum uncoupling capacity of the cells.
# AU565 cells [1] = assay: Oxygen consumption assay (Clark-type electrode); settings: AU565, 10 and 20 µM
# Experimental: as §1
# AU565 cells [2] = assay: MTT cell viability assay, mammary carcinoma; settings: for IC50: Homo sapiens
# Experimental: (§2) Human cell lines were obtained from the American Type Culture Collection (ATCC, Manassas, VA, USA). Normal lung MRC-5 fibroblasts (ATCC® CCL-171™), SK-MES-1 lung cancer cells (ATCC® HTB-58™), and J82 bladder carcinoma cells (ATCC® HTB-1™) were grown as monolayers in Eagle’s minimum essential medium (MEM) with Earle’s salts, 2 mM L-glutamine, and 1.5 g/L sodium bicarbonate. Gastric epithelial AGS cells (ATCC® CRL-1739™) were grown as monolayers in Ham’s F-12 medium containing 1 mM L-glutamine and 1.5 g/L sodium bicarbonate. Promyelocytic leukemia HL-60 (ATCC® CCL-240™), colorectal adenocarcinoma HCT-15 (ATCC® CCL-225™), metastatic colorectal COLO205 (ATCC® CCL-222™), and breast cancer AU565 (ATCC® CRL-2351™, ER^−-HER2/neu^+) cells were grown in suspension in an RPMI-1640 medium containing 1 mM sodium pyruvate and 2.0 g/L sodium bicarbonate. Human breast cancer MCF-7 (ATCC® HTB-22™, ER^+-HER2/neu^−) and MDA-MB-231 (ATCC® HTB-26™, ER^−-HER2/neu^−) cells were grown as monolayers in DMEM medium. All media were supplemented with 10% heat-inactivated fetal bovine serum (HI-FBS), 100 IU/mL penicillin G, and 100 µg/mL streptomycin. Cells were maintained at 37 °C in a humidified incubator with 5% CO2.
# (§3) MRC-5, SK-MES-1, J82, and AGS cells were seeded at a density of 5 × 10^4 cells/mL in 96-well plates. COLO205, HCT-15, MCF-7, MDA-MB-231, and AU565 cells were seeded at 1 × 10^5 cells/mL, while HL-60 cells were plated at 3 × 10^5 cells/mL. A volume of 100 µL of the cell suspension was added to each well. After 24 h, the compounds were added in increasing concentrations (ranging from 0 to 100 µM), and cells were incubated for 24, 48, or 72 h. The compounds were dissolved in DMSO and diluted in complete medium to a final concentration of 0.5% DMSO. Cells treated with 0.5% DMSO in complete medium were used as viability controls (100%). Etoposide (98% purity, Sigma-Aldrich, St. Louis, MO, USA) was used as the reference compound. Each concentration was tested in quadruplicate, and each experiment was performed twice using independent cell preparations. At the end of the incubation period, cell viability was determined using the MTT reduction assay. The results were transformed into percentages relative to controls, and IC50 values were obtained graphically from the dose–response curves. Results are presented as IC50 values ± standard deviation (SD).
# COLO205 cells = assay: MTT cell viability assay, metastatic colorectal cancer; settings: for IC50: Homo sapiens, COLO 205
# Experimental: as §2, §3
structure (smiles),measurement,setting,value
"C=C(C)[C@@H]1CC[C@]2(C(=O)OCCCC[P+](c3ccccc3)(c3ccccc3)c3ccccc3)CC[C@]3(C)[C@H](CC[C@@H]4[C@@]5(C)CC[C@H](O)C(C)(C)[C@@H]5CC[C@]43C)[C@@H]12 [BA-C4-TPP^+Br^−, 4-Triphenylphosphoniobutyl 3β-hydroxylup-20(29)-en-28-oate bromide]",oxygen consumption rate,"MCF-7 cells; MCF-7, 10 µM compound",12.57 nmol O2 min^−1
same,oxygen consumption rate,"MCF-7 cells; MCF-7, 20 µM compound",21.66 nmol O2 min^−1
same,mitochondrial uncoupling effect,"MCF-7 cells; MCF-7, 10 and 20 µM",concentration-dependent
same,mitochondrial uncoupling effect,AU565 cells [1],the strongest uncoupler in AU565 cells
same,increase in potency compared to non-modified BA scaffold,AU565 cells [2]; AU565 cells at 48 h,~15 fold
same,IC50,"AU565 cells [2]; AU565, 24 h",1660 ± 120 nM
same,IC50,"AU565 cells [2]; AU565, 48 h",600 ± 50 nM
same,increase in potency compared to non-modified BA scaffold,COLO205 cells; COLO205 cells at 72 h,~264 fold
same,IC50,"COLO205 cells; COLO205, 24 h",880 ± 220 nM
same,IC50,"COLO205 cells; COLO205, 48 h",450 ± 90 nM
same,IC50,"COLO205 cells; COLO205, 72 h",130 ± 10 nM
